Source: patent US20080279912A1, “Use of Cis-Epoxyeicosatrienoic Acids And Inhibitors of Soluble Epoxide Hydrolase to Alleviate Eye Disorders” (Regents of the University of California Office of …, priority 2005, published 2008)

Key:
sEH = biological target: T1, sEH (Homo sapiens, UniProt P34913); assay: Inhibition of sEH (standard assays, stated in text); assay type: biochemical
T1 sequence (P34913 1-555): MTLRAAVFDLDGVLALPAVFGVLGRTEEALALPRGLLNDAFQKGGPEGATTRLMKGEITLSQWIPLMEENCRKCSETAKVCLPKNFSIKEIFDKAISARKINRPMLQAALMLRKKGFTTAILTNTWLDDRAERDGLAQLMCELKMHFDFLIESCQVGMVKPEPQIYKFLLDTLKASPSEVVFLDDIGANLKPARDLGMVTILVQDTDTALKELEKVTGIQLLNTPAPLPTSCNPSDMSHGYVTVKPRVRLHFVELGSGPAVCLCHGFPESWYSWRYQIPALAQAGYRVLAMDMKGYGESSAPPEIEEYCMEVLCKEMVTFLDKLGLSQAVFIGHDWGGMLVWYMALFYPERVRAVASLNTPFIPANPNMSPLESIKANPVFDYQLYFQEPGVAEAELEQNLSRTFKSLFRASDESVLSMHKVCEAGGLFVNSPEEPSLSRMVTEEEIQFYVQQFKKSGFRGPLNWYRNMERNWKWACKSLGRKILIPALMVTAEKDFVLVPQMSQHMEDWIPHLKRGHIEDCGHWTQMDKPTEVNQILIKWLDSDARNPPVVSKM
Source text: Derivatives of urea are transition state mimetics that form a preferred group of sEH inhibitors. […] Any particular urea derivative or other compound can be easily tested for its ability to inhibit sEH by standard assays, such as those discussed herein. The production and testing of urea and carbamate derivatives as sEH inhibitors is set forth in detail in, for example, Morisseau et al., Proc Natl Acad Sci (USA) 96:8849-8854 (1999).
Any of a number of standard assays for determining epoxide hydrolase activity can be used to determine inhibition of sEH. […] Suitable in vitro assays are described in Zeldin et al., J. Biol. Chem. 268:6402-6407 (1993). Suitable in vivo assays are described in Zeldin et al., Arch Biochem Biophys 330:87-96 (1996).

Metabolic stability = assay type: in vitro ADME
[1] = tested on: New Zealand white rabbits; assay: Intraocular pressure in rabbits after treatment of the eye (tonometer); assay type: in vivo; conditions: one rabbit per treatment, 50 μL/eye; for Change in intraocular pressure (IOP treated eye minus control eye) after topical instillation: 100 μg/mL in artificial tears with 1% DMSO; for Time after treatment at which IOP decline appeared: 100 μg/mL, topical
Method: Female New Zealand white rabbits (2.7-3.0 kg) were obtained from Harlan (Indianapolis, Ind.). On test day, rabbits were lightly tranquilized with torbugesic/acepromazine at 0.04 mg/kg, administered subcutaneously. Ten to twenty minutes after administration of the tranquilizer, a drop of proparacaine hydrochloride (0.5% ophthalmic solution) was instilled in each eye to numb the eye prior to taking the intraocular pressure measurement. After 2-5 min, intraocular pressure in each eye (right and left) was measured using a tonometer (Tono-Pen®, Mentor Opthalmics, Santa Barbara, Calif.). Measurements were taken every 3-5 minutes to obtain baseline pressure. Then various treatments were applied (right eye) and after 3-5 minutes measurements were again taken every 3-5 minutes. Data are expressed as the change in intraocular pressure (“IOP”) in the treated eye compared to the control eye (IOP in treated eye—IOP in control eye). […] DMSO is also known to aid penetration through the skin. For a treatment to be effective, it must penetrate the cornea. Later treatments utilized subconjunctival injection. This delivers the compound below the conjunctiva where it is rapidly absorbed, avoiding issues of absorption.
Treatments: Each rabbit was administered one of the following treatments: (1). Epoxyeicosatrienoic acids (EETs) only, 100 μg/mL carboxylmethyl cellulose artificial tears containing 1% dimethyl sulfoxide (DMSO), 50 μL/eye (2). […] EETs only, 10 μg/mL carboxylmethyl cellulose artificial tears containing 1% DMSO, 0.1 cc/eye administered subconjunctivally (4).
Compounds used for the topical treatment of eye diseases become clinically useful only if they can penetrate the intact epithelium of the cornea and conjunctiva and achieve clinically useful concentrations within the eye. Thus for these trials we used both instillation by drops and by subconjunctival injections.

[2] = Stability of EETs on storage, handling and administration; assay type: physicochemical; conditions: if not exposed to acidic conditions or to sEH

## CCCCCCCCCCCCNC(=O)NC12CC3CC(CC(C3)C1)C2 [ADU, N-Adamantyl-N′-dodecyl urea]
sEH
  Activity as an inhibitor of sEH: particularly high activity
Metabolic stability
  Metabolic stability: metabolically stable

## O=C(O)CCCCCCCCCCCNC(=O)NC12CC3CC(CC(C3)C1)C2 [AUDA, 12-(3-Adamantan-1-yl-ureido)dodecanoic acid]
[1]
  Change in intraocular pressure (IOP treated eye minus control eye) after topical instillation: distinct decline in pressure
  Time after treatment at which IOP decline appeared: about 20 minutes

## cis-Epoxyeicosatrienoic acids [EETs]
[1]
  Change in intraocular pressure (IOP treated eye minus control eye) after topical instillation: definite declining trend
  Time after treatment at which IOP decline appeared: about 45 minutes
[2]
  Stability: stable
